The supplement of paper PMC13380429

Experiments:
Conditions in all cases: 72 h
Calu-3 [1] = experiment: relative viability EC50 (midpoint between 100% and the lowest measured viability); higher = less toxic
Vero E6 [2] = experiment: as above
HepG2 [3] = experiment: as above
U2OS [4] = experiment: as above
Caco-2 [5] = experiment: as above
Calu-3 [6] = experiment: drug sensitivity score (DSS) for viability; higher = more toxic; extreme values may be limits of the assay
Vero E6 [7] = experiment: as above
HepG2 [8] = experiment: as above
U2OS [9] = experiment: as above
Caco-2 [10] = experiment: as above
Calu-3 [11] = experiment: cell viability relative to DMSO; higher = less toxic
Vero E6 [12] = experiment: as above
HepG2 [13] = experiment: as above
U2OS [14] = experiment: as above
Caco-2 [15] = experiment: as above

Structure (SMILES) | relative viability EC50 (Calu-3 [1]) [µM] | relative viability EC50 (Vero E6 [2]) [µM] | relative viability EC50 (HepG2 [3]) [µM] | relative viability EC50 (U2OS [4]) [µM] | relative viability EC50 (Caco-2 [5]) [µM] | drug sensitivity score (Calu-3 [6]) | drug sensitivity score (Vero E6 [7]) | drug sensitivity score (HepG2 [8]) | drug sensitivity score (U2OS [9]) | drug sensitivity score (Caco-2 [10]) | cell viability (Calu-3 [11]; 1 nM) [%] | cell viability (Calu-3 [11]; 10 nM) [%] | cell viability (Calu-3 [11]; 100 nM) [%] | cell viability (Calu-3 [11]; 1000 nM) [%] | cell viability (Calu-3 [11]; 10000 nM) [%] | cell viability (Vero E6 [12]; 1 nM) [%] | cell viability (Vero E6 [12]; 10 nM) [%] | cell viability (Vero E6 [12]; 100 nM) [%] | cell viability (Vero E6 [12]; 1000 nM) [%] | cell viability (Vero E6 [12]; 10000 nM) [%] | cell viability (HepG2 [13]; 1 nM) [%] | cell viability (HepG2 [13]; 10 nM) [%] | cell viability (HepG2 [13]; 100 nM) [%] | cell viability (HepG2 [13]; 1000 nM) [%] | cell viability (HepG2 [13]; 10000 nM) [%] | cell viability (U2OS [14]; 1 nM) [%] | cell viability (U2OS [14]; 10 nM) [%] | cell viability (U2OS [14]; 100 nM) [%] | cell viability (U2OS [14]; 1000 nM) [%] | cell viability (U2OS [14]; 10000 nM) [%] | cell viability (Caco-2 [15]; 1 nM) [%] | cell viability (Caco-2 [15]; 10 nM) [%] | cell viability (Caco-2 [15]; 100 nM) [%] | cell viability (Caco-2 [15]; 1000 nM) [%] | cell viability (Caco-2 [15]; 10000 nM) [%]
CN(C)c1nc(N(C)C)nc(N(C)C)n1 [altretamine] | > 10 | > 10 | > 10 | > 10 | > 10 | 0 | 0 | 0 | 0 | 0 | 92.7 | 95.6 | 111 | 99.3 | 102 | 104 | 98.3 | 95.5 | 93 | 101 | 97.3 | 96.7 | 94.9 | 96 | 93.9 | 100 | 104 | 96.5 | 103 | 97.2 | 97.8 | 100 | 99.8 | 106 | 89.9
COc1cc2c(cc1OC)-c1c(C)c3ccc(OC)c(OC)c3c[n+]1CC2 [dehydrocorydaline] | > 10 | > 10 | > 10 | > 10 | > 10 | 0 | 0 | 0 | 0 | 0 | 96.4 | 105 | 91.2 | 102 | 100 | 95.9 | 100 | 99.6 | 94.8 | 98.5 | 98.6 | 99.4 | 95.1 | 94.2 | 95.7 | 99.1 | 101 | 98.6 | 100 | 97.1 | 97.6 | 100 | 92.5 | 101 | 88.8
CCN(CC)CCNC(=O)COc1ccc(OC)cc1 [mefexamide] | > 10 | > 10 | > 10 | > 10 | > 10 | 0 | 0 | 0 | 0 | 0.1 | 108 | 106 | 109 | 106 | 98.5 | 95.1 | 106 | 95.4 | 96.8 | 108 | 114 | 73.9 | 92.7 | 114 | 119 | 97.9 | 99.3 | 104 | 98 | 102 | 93 | 98.3 | 81.7 | 81.9 | 102
COc1cc2c(cc1OC)[C@@H](Cc1cc(OC)c(OC)c(OC)c1)[N+](C)(CCCOC(=O)CC/C=C/CCC(=O)OCCC[N+]1(C)CCc3cc(OC)c(OC)cc3[C@H]1Cc1cc(OC)c(OC)c(OC)c1)CC2 (stereo not given in full) [mivacurium] | > 10 | > 10 | > 10 | > 10 | > 10 | 0 | 0 | 0 | 0 | 0 | 112 | 97.6 | 101 | 89.7 | 94 | 106 | 112 | 105 | 97.7 | 93 | 101 | 95.2 | 99.4 | 84.3 | 97.7 | 102 | 99.8 | 98.6 | 96.3 | 100 | 107 | 98.9 | 109 | 123 | 94.5
O=S1(=O)OC(c2ccc(O)cc2)(c2ccc(O)cc2)c2ccccc21 [phenolsulfonphthalein] | > 10 | > 10 | > 10 | > 10 | > 10 | 0 | 0 | 0 | 0 | 0.1 | 108 | 104 | 83.5 | 110 | 93.2 | 105 | 102 | 100 | 93.8 | 100 | 99.3 | 94.5 | 99.3 | 99.6 | 93.5 | 99.5 | 104 | 98 | 103 | 96.4 | 102 | 108 | 96.1 | 93.7 | 87.9
Cc1nc2c(c(=O)[nH]1)CSCC2 [DR-2313] | > 10 | > 10 | > 10 | > 10 | > 10 | 0 | 0 | 0 | 0 | 0 | 105 | 92.2 | 95 | 95.5 | 91.9 | 98 | 100 | 97.8 | 94.6 | 108 | 99.8 | 101 | 98.3 | 108 | 94.6 | 102 | 99.1 | 99.9 | 97.1 | 99.1 | 92.6 | 88.9 | 90.1 | 95.7 | 97.4
CC=CC1=C(C(=O)O)N2C(=O)[C@@H](NC(=O)[C@H](N)c3ccc(O)cc3)[C@H]2SC1 (mixture of isomers) [cefprozil] | > 10 | > 10 | > 10 | > 10 | > 10 | 0 | 0 | 0 | 0 | 0 | 86.7 | 94.2 | 81 | 97.8 | 95.5 | 110 | 90.7 | 99.9 | 103 | 112 | 112 | 104 | 100 | 97.2 | 106 | 95.8 | 101 | 96.8 | 99.8 | 98.7 | 101 | 94.3 | 82.7 | 120 | 125
CCCN1CCCC[C@H]1C(=O)Nc1c(C)cccc1C [ropivacaine] | > 10 | > 10 | > 10 | > 10 | > 10 | 0 | 0 | 0 | 0 | 0 | 107 | 106 | 90.7 | 103 | 97.5 | 103 | 103 | 98.3 | 98.7 | 98.1 | 96.5 | 96.7 | 89.2 | 95.6 | 99.4 | 96.6 | 97.9 | 92.2 | 99 | 97.4 | 90.8 | 101 | 92.6 | 102 | 95.3
COc1cc(Cc2cnc(N)nc2N)c(C(C)C)cc1OC [Ro-3] | > 10 | > 10 | > 10 | > 10 | > 10 | 0 | 0 | 0 | 0 | 0 | 98.1 | 87.8 | 98 | 101 | 103 | 90.6 | 95.7 | 96.5 | 94.9 | 103 | 99.2 | 92.3 | 93.5 | 101 | 103 | 97.8 | 99.7 | 95 | 102 | 102 | 94.9 | 90.5 | 97.3 | 101 | 102
CN(C)C(=O)Nc1cccc(-c2ccc(N(C)C)cc2)c1 [atglistatin] | > 10 | > 10 | > 10 | > 10 | > 10 | 0 | 0 | 0 | 0 | 0 | 111 | 99.2 | 90.1 | 96.6 | 103 | 99 | 99.7 | 98.3 | 97.6 | 107 | 98.2 | 97.9 | 99.4 | 108 | 113 | 96.4 | 99.3 | 97.8 | 98.5 | 96.5 | 84.3 | 100 | 92.2 | 88.7 | 104
O=C(CCCN1CCC(n2c(=O)[nH]c3ccccc32)CC1)c1ccc(F)cc1 [benperidol] | > 10 | > 10 | > 10 | > 10 | > 10 | 0 | 0 | 0 | 0 | 0 | 101 | 88.1 | 82.4 | 94.4 | 99.1 | 105 | 96.2 | 98 | 100 | 95.9 | 103 | 107 | 107 | 107 | 97.5 | 98.2 | 108 | 98.1 | 106 | 96.1 | 102 | 99.2 | 98.1 | 102 | 103
CC(COc1ccccc1Cc1ccccc1)N1CCCCC1 (stereo not given) [benproperine] | > 10 | > 10 | > 10 | > 10 | > 10 | 0 | 0 | 1.5 | 0 | 0.3 | 94.8 | 106 | 89 | 103 | 88.4 | 112 | 100 | 103 | 101 | 98.1 | 104 | 109 | 96.5 | 85.7 | 87.9 | 92.8 | 96.3 | 92 | 102 | 89.3 | 90.6 | 106 | 96.4 | 100 | 83.4
O=Cc1cn(Cc2ccc(Cl)cc2)c2ccccc12 [oncrasin-1] | > 10 | > 10 | 0.847 | > 10 | > 10 | 0 | 0 | 12.5 | 0 | 0 | 94.8 | 100 | 96.2 | 99.8 | 106 | 90.4 | 102 | 94.1 | 95.9 | 103 | 101 | 110 | 104 | 40.3 | 1.2 | 97.2 | 96.8 | 102 | 100 | 101 | 92.2 | 90.8 | 97.2 | 101 | 98.6
CCOc1ccc(NC(C)=O)cc1 [phenacetin] | > 10 | > 10 | > 10 | > 10 | > 10 | 0 | 0 | 0 | 0 | 0.1 | 90.3 | 90.8 | 99.5 | 94.3 | 104 | 109 | 102 | 108 | 96 | 102 | 95.8 | 77.6 | 90.8 | 93.7 | 84.1 | 100 | 94.6 | 90.2 | 90.3 | 97.8 | 105 | 81.8 | 101 | 110 | 85.9
CN1CCN(c2ccc(/C=C(\C#N)c3ccccc3Br)cc2)CC1 [DG-172] | > 10 | > 10 | > 10 | > 10 | > 10 | 0 | 0 | 0.3 | 0 | 0.2 | 114 | 102 | 104 | 100 | 90.6 | 106 | 108 | 104 | 105 | 91.3 | 101 | 99.9 | 104 | 105 | 82.1 | 105 | 101 | 106 | 100 | 94.8 | 102 | 99.5 | 100 | 95.5 | 88.5
